Consider 1 molecule from patent publication US11857535B2, “Methods of treating mutant lymphomas” (Kymera Therapeutics, Inc., priority 2020, dated 2024).

Where two headings read alike, the source gives them in different places.

The nature of series [1]: 7.2 Pharmacokinetic and tolerability characterization, intravenous bolus, cynomolgus monkeys. To be noted: cynomolgus monkey, in vivo, IV dosing in NHP. The text has this:
7.2 Pharmacokinetic and Tolerability Characterization following Intravenous Bolus Administration to Male and Female Cynomolgus Monkeys
The objective of this study is to determine the pharmacokinetics and tolerability of Compound A following intravenous bolus administrations of Compound A on a single day or two consecutive days in male and female cynomolgus monkeys. The test article will be measured in plasma at selected time points for up to 14 days post dosing.
Purpose: To prepare a 20 mgA/mL solution of 20%:80% Compound A:HPBCD SDD in an aqueous vehicle comprised of 5 wt % TPGS in 0.1 M Acetate suitable for IV dosing in NHP. […]
Bioanalytical method development and sample analysis • LC-MS/MS method development: • 1. A LC-MS/MS method for the quantitative determination of test compound in biological matrix will be developed under non-GLP compliance. • 2. […] N in 1 cassette LC-MS/MS method can be developed for samples coming from different studies as long as these studies belong to same sponsor and the interference among all cassette analytes will be evaluated during the method development. • 5. […] If such kind cassette assay is still requested by the study sponsor, interference between analytes will not be evaluated but the LC separation of those analytes by using a generic method will be tried. […]

Series [2] in a line: Human dose prediction by matching AUCs with intermittent dosing regimens in mice models. The note with it: mouse, read-out: Weekly AUC. The method, then: Human dose predictions from intermittent dosing supports dose targets for both IV and PO dosing.
IV formulation up to 300 mg/dose is feasible (exposure for efficacy is 100-300 mg/dose). Dosing to ≥400 mg likely possible (>80% POS based on initial formulation assessment). Projected PO upper dose of 900 mg/day is feasible. May be divided into BID dosing to achieve exposure. High pill burden or unusual formulation strategy (e.g., mix and drink) may be needed. PO versus IV dosing in compared in Table 14.

Series [3] is described as follows: NHP clinical observations and body weight (tolerability). It is filed as in vivo, Cynomolgus monkeys. As for the experimental part:
Body weight measurement at pre-dose on Day 1, Day 4, Day 7, Day 14. Monitor clinical observation of the animal for 14 days post dose.
Twice daily (approximately 9:30 a.m. and 4:00 p.m.), Cage-side observations for general health and appearance will be done. Animals will be given physical examination prior to study initial to confirm animals' health. Day of dosing: before and after dosing, and before and after each PK sample time point through 24 hour PK sample. Twice daily thereafter. General condition, behavior, activity, excretion, respiration or other unusual observations noted throughout the study will be recorded in the raw data. When necessary, additional clinical observations will be performed and recorded.
All animals will be weighed on the dosing day prior to dosing to determine the dose volume to be administered, and again weekly thereafter.
All animals will be weighed on the dosing day prior to dosing to determine the dose volume to be administered, and again weekly after.

On to `CC(C)(O)c1cc2nc([C@H]3CC[C@H](CN4CC5(CC(CCNc6cccc7c6C(=O)N(C6CCC(=O)NC6=O)C7=O)C5)C4)CC3)sc2cc1NC(=O)c1cccc(C(F)(F)F)n1` (stereo partly drawn) [Compound A, N-(2-((1r,4r)-4-((6-(2-((2-(2,6-dioxopiperidin-3-yl)-1,3-dioxoisoindolin-4-yl)amino)ethyl)-2-azaspiro[3.3]heptan-2-yl)methyl)cyclohexyl)-5-(2-hydroxypropan-2-yl)benzo[d]thiazol-6-yl)-6-(trifluoromethyl)picolinamide], for which the target exposure range AUC0-168 in series [1] (schedule D1, 2, read-out: Target exposure Range (Ly10-DHL2) AUC0-168) was 12 to 36 µM·h; in series [1] (schedule D1, read-out: Target exposure Range (Ly10-DHL2) AUC0-168) it was 24 to 72 µM·h. For the same molecule, the AUC in series [2] (3 mg/kg, OCI-Ly10 model, IV 3 mpk BIW) is 12 µM·h; in series [2] (10 mg/kg, OCI-Ly10 model, PO 10 mpk BIW), 7 µM·h; in series [2] (30 mg/kg, DHL2 model, PO 30 mpk BIW) it was 18 µM·h; in series [2] (DHL2 model, IV ~10 (est.) mpk BIW, estimated) it was ~36 µM·h. In addition, the AUC at 1 week in series [2] (12 mg/kg, OCI-Ly10 model, IV 12 mpk QW) is 24 µM·h; in series [2] (30 mg/kg, OCI-Ly10 model, PO 30 mpk QW) it was 18 µM·h. The GI events entry was “No observed GI events” in series [3] (IV, exposures up to 4.4X MED); “GI events (e.g., diarrhea and emesis)” in series [3] (PO, observed in all TA PO dose groups, likely tolerable). Also, in series [3] (NHP, IV), the Hematuria result is given as “Not observed in NHP: slower”. The “Clinical Observations” value in series [3] (NHP, IV 5 mg/kg, D1, 2) is listed as “None”; in series [3] (NHP, IV 10 mg/kg, D1), “None”; in series [3] (NHP, IV 10 mg/kg, D1, 2), “None”; in series [3] (NHP, IV 20 mg/kg, D1), “None”; in series [3] (NHP, PO 10 mg/kg, D1, D4), “Diarrhea”; in series [3] (NHP, PO 25 mg/kg, D1, D2), “Diarrhea, Emesis”. Besides, the “Clinical Observations” value in series [3] (NHP, PO 25 mg/kg, D1, D4) was “Diarrhea, Emesis”; in series [3] (NHP, PO 50 mg/kg, D1), “Diarrhea”; in series [3] (NHP, PO 50 mg/kg, D1, D4) it was “Diarrhea, Emesis”; in series [3] (NHP, PO 100 mg/kg, D1) it was “Diarrhea, Emesis”.
